These results are taken from US7994116B2, “Methods for reduction of adhesion formation using cytokine inhibitors” (Pharmasurgics In Sweden AB, priority 2002, dated 2011).

The subject of assay [1] is rats with a standardized laminectomy. Briefly: laminectomy model on the rat, infliximab treatment: wound healing and scar formation. The assay is classed as in vivo. The conditions noted are these: laminectomy of 4th lumbar vertebra, 4 mg/kg intraperitoneal. The procedure:
Four rats were anaesthetized with a standardized combination of pentobarbital and diazepam. The skin on the back was shaved. Through a midline incision, a laminectomy of the 4th lumbar vertebra was performed. The spinal muscles and the skin was sutured. Two rats received an intraperitoneal injection of 4 mg/kg of infliximab. Infliximab is a monoclonal antibody towards TNF with an inhibiting action with a duration of 1-2 months following single administration in the dosage used. The other two rats received an intraperitoneal injection of saline. After 2 weeks, the rats were reanaesthesized and wound healing and scar formation were evaluated by a person being unaware of the experimental protocol. Wound healing was considered normal in both groups. […] In the non-treated group, there was a somewhat more dense lump of connective tissue that was adherent to the spinal dura mater.

Assay [2] concerns TNF. The conditions noted are these: following single administration in the dosage used (4 mg/kg); cited from earlier work.

infliximab: the “adhesion of connective tissue to the spinal dura mater” value in assay [1] (after 2 weeks, saline group: adherent to the dura mater) was “did not adhere to the spinal dura mater and was easy to remove”. The “scar formation: tissue filling the previous location of the lamina” value in assay [1] (after 2 weeks, saline group: somewhat more dense lump of connective tissue) is on record as “soft connective tissue”. Besides, the wound healing result in assay [1] (evaluated after 2 weeks, blinded) is “normal”. Also, in assay [2], the “duration of inhibiting action towards TNF” value is 1-2 months.
